Source: patent US8394952B2 (Vertex Pharmaceuticals Incorporated, priority 2006, dated 2013)

Legend:
Plk1 [1] = target: T1, Plk1 (Homo sapiens, UniProt P53350); test: Plk1 inhibition assay (radioactive-phosphate incorporation); details: for activity in the Plk1 radioactive incorporation assay (in words): test compound typically starting from 10 μM; for solubility under the Plk1 assay conditions: Plk1 radioactive incorporation assay conditions
Plk1 [2] = target: T1, Plk1; test: biochemical

T1 sequence (P53350 20-338): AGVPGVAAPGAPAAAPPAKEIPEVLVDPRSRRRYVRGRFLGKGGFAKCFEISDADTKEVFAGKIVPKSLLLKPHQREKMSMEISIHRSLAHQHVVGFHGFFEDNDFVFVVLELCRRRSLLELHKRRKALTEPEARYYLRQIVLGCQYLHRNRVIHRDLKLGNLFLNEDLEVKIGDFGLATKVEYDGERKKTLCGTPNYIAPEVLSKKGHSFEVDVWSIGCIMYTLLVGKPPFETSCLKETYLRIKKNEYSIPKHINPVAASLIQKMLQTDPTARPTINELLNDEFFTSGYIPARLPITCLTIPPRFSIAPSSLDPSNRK

| Structure (SMILES) | activity in the Plk1 radioactive incorporation assay (in words) (Plk1 [1]) | solubility under the Plk1 assay conditions (Plk1 [1]) | also measured |
| --- | --- | --- | --- |
| COc1cc(C(=O)O)ccc1Oc1ncc2c(n1)N(C1CCCC1)CC(C)(C)C(=O)N2C [Compound I-107, 4-(9-cyclopentyl-6,7,8,9-tetrahydro-5,7,7-trimethyl-6-oxo-5H-pyrimido[4,5-b][1,4]diazepin-2-yloxy)-3-methoxybenzoic acid] | not active within the limits of the assay |  |  |
| CCOC(=O)N1CCC(Nc2ncc3c(n2)N(C2CCCC2)CCC(=O)N3C)CC1 [Compound I-13, Ethyl 4-(9-cyclopentyl-6,7,8,9-tetrahydro-5-methyl-6-oxo-5H-pyrimido[4,5-b][1,4]diazepin-2-ylamino)piperidin-1-carboxylate] | not active within the limits of the assay |  |  |
| CNC(=O)c1ccc(Nc2ncc3c(n2)N(C2CCCC2)CC(C)(C)C(=O)N3C)c(OC(F)(F)F)c1 [Compound I-142, 4-(9-Cyclopentyl-6,7,8,9-tetrahydro-5,7,7-trimethyl-6-oxo-5H-pyrimido[4,5-b][1,4]diazepin-2-ylamino)-N-methyl-3-(trifluoromethoxy)benzamide] |  | not soluble under the assay conditions |  |
| CNC(=O)c1ccc(Nc2ncc3c(n2)N(C2CCCC2)CC(C)(C)C(=O)N3C)nc1 [Compound I-126, 6-(9-cyclopentyl-6,7,8,9-tetrahydro-5,7,7-trimethyl-6-oxo-5H-pyrimido[4,5-b][1,4]diazepin-2-ylamino)-N-methylpyridine-3-carboxamide] |  | not soluble under the assay conditions |  |
| COc1cc(C(=O)N2CCNCC2)ccc1Nc1ncc2c(n1)N(C1CCCC1)CCC(=O)N2C [Compound I-8, 4-(9-cyclopentyl-6,7,8,9-tetrahydro-5-methyl-6-oxo-5H-pyrimido[4,5-b][1,4]diazepin-2-ylamino)-3-methoxyphenyl(piperazin-1-yl)methanone] |  |  | Ki (Plk1 [2]): 10 to 100 nM |
